pIC50: −log10 of the molar value. Where two headings read alike, the source gives them in different places.
How the values were obtained:
AHR [1] = target: T1, AHR (Mus musculus, UniProt P30561); experiment: In vitro assay 3: antagonism in mouse cell line (AHR transactivation, firefly luciferase reporter, kynurenic acid prestimulated); type: cell-based
T1 sequence (P30561 1-848 P471L/N533S/M589L): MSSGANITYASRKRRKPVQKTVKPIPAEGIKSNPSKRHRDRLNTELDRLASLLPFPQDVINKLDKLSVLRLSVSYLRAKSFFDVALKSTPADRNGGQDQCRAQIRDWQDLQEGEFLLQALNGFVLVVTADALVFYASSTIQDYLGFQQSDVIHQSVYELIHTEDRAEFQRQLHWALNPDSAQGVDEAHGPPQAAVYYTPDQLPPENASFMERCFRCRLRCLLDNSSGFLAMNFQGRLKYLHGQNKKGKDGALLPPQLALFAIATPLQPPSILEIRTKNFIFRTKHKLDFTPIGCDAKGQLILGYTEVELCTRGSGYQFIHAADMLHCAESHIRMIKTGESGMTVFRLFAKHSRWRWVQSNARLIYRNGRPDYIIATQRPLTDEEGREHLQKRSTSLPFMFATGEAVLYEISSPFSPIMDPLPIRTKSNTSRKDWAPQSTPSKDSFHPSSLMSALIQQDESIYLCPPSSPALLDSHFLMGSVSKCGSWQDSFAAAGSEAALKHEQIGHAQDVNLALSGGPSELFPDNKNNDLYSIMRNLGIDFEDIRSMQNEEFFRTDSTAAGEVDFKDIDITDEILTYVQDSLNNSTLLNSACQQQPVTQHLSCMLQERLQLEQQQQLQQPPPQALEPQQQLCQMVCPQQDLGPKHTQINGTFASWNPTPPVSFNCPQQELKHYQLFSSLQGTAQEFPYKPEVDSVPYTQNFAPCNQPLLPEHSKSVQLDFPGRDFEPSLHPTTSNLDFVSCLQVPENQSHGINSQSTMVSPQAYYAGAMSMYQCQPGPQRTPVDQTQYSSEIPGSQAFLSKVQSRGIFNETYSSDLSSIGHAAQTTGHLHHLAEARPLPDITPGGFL
In short: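 Luminescence from an AHR-dependent DRE-luciferase reporter, stably integrated in mouse cells, quantifies blockade of kynurenic acid-driven activation. Unstimulated cells mark maximal inhibition; normalization uses both control types, and multiply tested compounds carry mean or median values.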

AHR [2] = target: T2, AHR (Homo sapiens, UniProt P35869); experiment: In vitro assay 1: antagonism in human cell line (AHR transactivation, firefly luciferase reporter, kynurenic acid prestimulated); type: cell-based; conditions: AHR Antagonism Human IC50 [M]
T2 construct: U87 MG glioblastoma cells (ATCC #HTB-14) endogenously expressing AHR; endogenous in cells; host or cells: U87 MG glioblastoma cells (ATCC #HTB-14)
T2 sequence (P35869 11-848): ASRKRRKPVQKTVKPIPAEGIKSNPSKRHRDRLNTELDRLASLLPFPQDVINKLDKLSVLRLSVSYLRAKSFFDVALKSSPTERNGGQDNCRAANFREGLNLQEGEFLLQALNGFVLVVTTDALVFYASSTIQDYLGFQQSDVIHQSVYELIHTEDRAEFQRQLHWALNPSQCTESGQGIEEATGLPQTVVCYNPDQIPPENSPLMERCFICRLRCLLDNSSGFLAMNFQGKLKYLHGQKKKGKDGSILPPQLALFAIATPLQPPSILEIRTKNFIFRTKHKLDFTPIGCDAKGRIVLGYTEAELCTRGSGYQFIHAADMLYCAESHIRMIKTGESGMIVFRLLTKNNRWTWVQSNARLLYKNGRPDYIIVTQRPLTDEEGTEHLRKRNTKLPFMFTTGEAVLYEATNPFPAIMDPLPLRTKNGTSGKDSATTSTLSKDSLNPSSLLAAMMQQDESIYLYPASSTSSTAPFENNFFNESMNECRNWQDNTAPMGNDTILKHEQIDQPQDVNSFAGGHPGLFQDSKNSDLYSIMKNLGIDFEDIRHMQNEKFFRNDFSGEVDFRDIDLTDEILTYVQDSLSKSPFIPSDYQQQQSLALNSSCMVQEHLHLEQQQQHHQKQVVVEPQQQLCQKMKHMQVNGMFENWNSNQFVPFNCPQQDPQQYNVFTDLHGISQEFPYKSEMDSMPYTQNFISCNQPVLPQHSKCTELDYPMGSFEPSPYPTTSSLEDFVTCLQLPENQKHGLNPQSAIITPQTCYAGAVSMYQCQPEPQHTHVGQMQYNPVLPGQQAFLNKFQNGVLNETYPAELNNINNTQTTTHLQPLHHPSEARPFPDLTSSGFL
In short: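 Antagonism measured as loss of kynurenic acid-driven firefly luciferase from DRE reporter in stably transfected U87 MG cells; constitutive Renilla signal monitors cytotoxicity. Positive/negative control normalization, staurosporine 5 μM with 150 μM kynurenic acid as inhibition control; replicates given as mean or median.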

[3] = mouse Hepa 1c1c7 cells, 200 μM kynurenic acid, 20 hours, read-out: AHR Antagonism Mouse IC50
[4] = Hepa 1c1c7 cells, 200 μM kynurenic acid, 20 hours, firefly luciferase reporter, read-out: AHR Antagonism Mouse IC50
[5] = read-out: AHR Antagonism Mouse IC50, Hepa 1c1c7 cells, 200 μM kynurenic acid, 20 hours, firefly luciferase reporter

| pIC50 (AHR [1]; [3]) | IC50 (AHR [2]) | pIC50 (AHR [1]; [4]) | IC50 (AHR [2]; firefly luciferase reporter) | SMILES | pIC50 (AHR [1]; [5]) |
| --- | --- | --- | --- | --- | --- |
| 8.22 | 4.3e-09 M | – | – | COc1ccc(-c2nc3c4ccccc4nc(N[C@H](C)C(=O)NCCN4CCOCC4)n3n2)cc1 [Example 779, N^2-[2-(4-methoxyphenyl)[1,2,4]triazolo[1,5-c]quinazolin-5-yl]-N-[2-(morpholin-4-yl)ethyl]-D-alaninamide] | – |
| 8.26 | 4.91e-09 M | – | – | COc1ccc(-c2nc3c4cccc(Br)c4nc(N[C@H](C)C(=O)NCCN4CCN(C)CC4)n3n2)cc1 [Example 780, N^2-[7-bromo-2-(4-methoxyphenyl)[1,2,4]triazolo[1,5-c]quinazolin-5-yl]-N-[2-(4-methylpiperazin-1-yl)ethyl]-D-alaninamide] | – |
| 8.68 | 1.17e-09 M | – | – | COc1ccc(-c2nc3c4cccc(Br)c4nc(N[C@H](C)C(=O)NCCN4CCOCC4)n3n2)cc1 [Example 781, N^2-[7-bromo-2-(4-methoxyphenyl)[1,2,4]triazolo[1,5-c]quinazolin-5-yl]-N-[2-(morpholin-4-yl)ethyl]-D-alaninamide] | – |
| 7.10 | 1.29e-07 M | – | – | C[C@@H](Nc1nc2c(Br)cccc2c2nc(-c3cnn(C)c3)nn12)C(=O)NCCN1CCOCC1 [Example 782, N^2-[7-bromo-2-(1-methyl-1H-pyrazol-4-yl)[1,2,4]triazolo[1,5-c]quinazolin-5-yl]-N-[2-(morpholin-4-yl)ethyl]-D-alaninamide] | – |
| – | – | 6.54 | 1.71e-07 M | C[C@@H](Nc1nc2c(Br)cccc2c2nc(-c3cnn(C)c3)nn12)C(=O)NCCN1CCN(C)CC1 [Example 783, N^2-[7-bromo-2-(1-methyl-1H-pyrazol-4-yl)[1,2,4]triazolo[1,5-c]quinazolin-5-yl]-N-[2-(4-methylpiperazin-1-yl)ethyl]-D-alaninamide] | – |
| – | – | 7.32 | 9.16e-08 M | COc1ccc(-c2nc3c4ccccc4nc(N[C@H](C)C(=O)NCC(C)(C)N)n3n2)cc1 [Example 784, N-(2-amino-2-methylpropyl)-N^2-[2-(4-methoxyphenyl)[1,2,4]triazolo[1,5-c]quinazolin-5-yl]-D-alaninamide] | – |
| – | – | 7.49 | 2.38e-08 M | C[C@@H](Nc1nc2c(Br)cccc2c2nc(-c3cnn(C)c3)nn12)C(=O)N1CCOCC1 [Example 785, (2R)-2-{[7-bromo-2-(1-methyl-1H-pyrazol-4-yl)[1,2,4]triazolo[1,5-c]quinazolin-5-yl]amino}-1-(morpholin-4-yl)propan-1-one] | – |
| – | – | 7.66 | 2.2e-08 M | C[C@@H](Nc1nc2c(Br)cccc2c2nc(-c3cnn(C)c3)nn12)C(=O)N1CCN(C)CC1 [Example 786, (2R)-2-{[7-bromo-2-(1-methyl-1H-pyrazol-4-yl)[1,2,4]triazolo[1,5-c]quinazolin-5-yl]amino}-1-(4-methylpiperazin-1-yl)propan-1-one] | – |
| – | – | 7.42 | 2.26e-08 M | COc1ccc(-c2nc3c4ccccc4nc(N[C@H](C)C(=O)NCCN(C)C)n3n2)cc1 [Example 787, N-[2-(dimethylamino)ethyl]-N^2-[2-(4-methoxyphenyl)[1,2,4]triazolo[1,5-c]quinazolin-5-yl]-D-alaninamide] | – |
| – | – | 8.68 | 4.64e-10 M | COc1ccc(-c2nc3c4cccc(Br)c4nc(N[C@H](C)C(=O)N4CCN(C)CC4)n3n2)cc1 [Example 788, (2R)-2-{[7-bromo-2-(4-methoxyphenyl)[1,2,4]triazolo[1,5-c]quinazolin-5-yl]amino}-1-(4-methylpiperazin-1-yl)propan-1-one] | – |
| – | – | 7.77 | 4.3e-08 M | COc1ccc(-c2nc3c4cccc(Br)c4nc(N[C@H](C)C(=O)NCC(C)(C)N)n3n2)cc1 [Example 789, N-(2-amino-2-methylpropyl)-N^2-[7-bromo-2-(4-methoxyphenyl)[1,2,4]triazolo[1,5-c]quinazolin-5-yl]-D-alaninamide] | – |
| – | – | 6.40 | 4.14e-07 M | C[C@@H](Nc1nc2c(Br)cccc2c2nc(-c3cnn(C)c3)nn12)C(=O)NCC(C)(C)N [Example 790, N-(2-amino-2-methylpropyl)-N^2-[7-bromo-2-(1-methyl-1H-pyrazol-4-yl)[1,2,4]triazolo[1,5-c]quinazolin-5-yl]-D-alaninamide] | – |
| – | – | 7.67 | 1.76e-08 M | CCCCNC(=O)[C@@H](C)Nc1nc2c(Br)cccc2c2nc(-c3cnn(C)c3)nn12 [Example 794, N^2-[7-bromo-2-(1-methyl-1H-pyrazol-4-yl)[1,2,4]triazolo[1,5-c]quinazolin-5-yl]-N-butyl-D-alaninamide] | – |
| – | – | 5.50 | 2.46e-07 M | CCCNC(=O)[C@H](C)Nc1nc2c(Br)cccc2c2nc(-c3cnn(C)c3)nn12 [Example 795, N^2-[7-bromo-2-(1-methyl-1H-pyrazol-4-yl)[1,2,4]triazolo[1,5-c]quinazolin-5-yl]-N-propyl-L-alaninamide] | – |
| – | – | 7.69 | 1.37e-08 M | CCCNC(=O)[C@@H](C)Nc1nc2c(Br)cccc2c2nc(-c3cnn(C)c3)nn12 [Example 796, N^2-[7-bromo-2-(1-methyl-1H-pyrazol-4-yl)[1,2,4]triazolo[1,5-c]quinazolin-5-yl]-N-propyl-D-alaninamide] | – |
| – | – | 9.02 | 1.58e-09 M | CCCNC(=O)[C@@H](CC)Nc1nc2c(Br)cccc2c2nc(-c3ccc(Cl)cc3OC(F)F)nn12 [Example 797, (2R)-2-({7-bromo-2-[4-chloro-2-(difluoromethoxy)phenyl][1,2,4]triazolo[1,5-c]quinazolin-5-yl}amino)-N-propylbutanamide] | – |
| – | – | 9.09 | 7.57e-10 M | CCNC(=O)[C@@H](CC)Nc1nc2c(Br)cccc2c2nc(-c3ccc(Cl)cc3OC(F)F)nn12 [Example 798, (2R)-2-({7-bromo-2-[4-chloro-2-(difluoromethoxy)phenyl][1,2,4]triazolo[1,5-c]quinazolin-5-yl}amino)-N-ethylbutanamide] | – |
| – | – | 7.73 | 4.21e-08 M | CCNC(=O)[C@H](CC)Nc1nc2c(Br)cccc2c2nc(-c3ccc(Cl)cc3OC(F)F)nn12 [Example 799, (2S)-2-({7-bromo-2-[4-chloro-2-(difluoromethoxy)phenyl][1,2,4]triazolo[1,5-c]quinazolin-5-yl}amino)-N-ethylbutanamide] | – |

| SMILES | pIC50 (AHR [1]; [3]) | IC50 (AHR [2]) | pIC50 (AHR [1]; [4]) | IC50 (AHR [2]; firefly luciferase reporter) | pIC50 (AHR [1]; [5]) |
| --- | --- | --- | --- | --- | --- |
| CC[C@@H](Nc1nc2ccccc2c2nc(-c3cn(C)nn3)nn12)C(N)=O [Example 793, (2R)-2-{[2-(1-methyl-1H-1,2,3-triazol-4-yl)[1,2,4]triazolo[1,5-c]quinazolin-5-yl]amino}butanamide] | – | – | – | 2.94e-06 M | 6.16 |
| CC[C@@H](Nc1nc2c(Br)cccc2c2nc(-c3ccnn3C)nn12)C(N)=O [Example 800, (2R)-2-{[7-bromo-2-(1-methyl-1H-pyrazol-5-yl)[1,2,4]triazolo[1,5-c]quinazolin-5-yl]amino}butanamide] | – | – | – | 2.37e-09 M | 8.77 |

Source: patent US20230113037A1 (Bayer Aktiengesellschaft, priority 2019, published 2023)
